Among the data in patent US8822467B2 (Ligand Pharmaceuticals Inc., priority 2009, dated 2014) are IC50 values, retold here.

The target of one assay is T1, human CRTH2 (Homo sapiens, UniProt Q9Y5Y4).
T1 construct: expressed in transfected cells
T1 sequence (Q9Y5Y4 1-395): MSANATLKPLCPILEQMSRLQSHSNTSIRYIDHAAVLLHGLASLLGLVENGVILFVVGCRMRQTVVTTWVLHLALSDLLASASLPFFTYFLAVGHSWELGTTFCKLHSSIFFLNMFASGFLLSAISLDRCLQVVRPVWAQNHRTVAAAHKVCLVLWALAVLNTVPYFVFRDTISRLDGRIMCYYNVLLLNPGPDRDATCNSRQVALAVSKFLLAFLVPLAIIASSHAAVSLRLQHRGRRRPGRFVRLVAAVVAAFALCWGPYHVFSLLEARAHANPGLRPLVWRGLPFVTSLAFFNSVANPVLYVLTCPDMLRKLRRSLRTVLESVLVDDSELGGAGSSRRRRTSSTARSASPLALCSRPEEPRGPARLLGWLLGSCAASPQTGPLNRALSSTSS
The experiment in a line: [35S]GTPγS binding assay (SPA) on membranes from CHO-K1 cells stably expressing human CRTH2, stimulated with 60 nM DHK-PGD2. As to conditions: membranes of CHO-K1 cells expressing human CRTH2; 60 nM DHK-PGD2; Table 1; read-out: CRTH2 hGTPγS IC50. It is filed as biochemical. The essentials: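 Membranes (4 μg) from CHO-K1 cells stably expressing human CRTH2 were incubated with compounds, 60 nM DHK-PGD2, 500 pM [35S]GTPγS and 10 μM GDP plus WGA SPA beads. Buffer was 20 mM HEPES pH 7.4, 10 mM MgCl2, 300 mM NaCl, 0.2% BSA, with 1% DMSO. Incubation ran 2 h at ambient temperature, with SPA scintillation read 4 h after centrifugation.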
For orientation: GTPγS is a poorly hydrolysed GTP analogue; its binding reports G protein activation.
In general, IC50 refers to the midpoint of a concentration-inhibition curve. Turning to `CN(Cc1ccc(OCC(=O)O)c(-c2cccc(C#N)c2)c1)S(=O)(=O)c1cc(F)cc(F)c1` [Example 97, 2-(3-cyanophenyl)-4-((3,5-difluoro-N-methylphenylsulfonamido)methyl)phenoxyacetic acid], the IC50 was 43 nM.

As for `CN(Cc1ccc(OCC(=O)O)c(-c2cc(F)cc(F)c2)c1)S(=O)(=O)c1ccc(F)c(Cl)c1` [Example 67, 2-(3,5-difluorophenyl)-4-((3-chloro4-fluoro-N-methylphenylsulfonamido)methyl)phenoxyacetic acid], the IC50 worked out at 13 nM. The same measure, in the same setting: then `CN(Cc1ccc(OCC(=O)O)c(-c2cc(F)cc(F)c2)c1)S(=O)(=O)c1ccc(Cl)c(Cl)c1` [Example 51, 2-(3,5-difluorophenyl)-4-((3,4-dichloro-N-methylphenylsulfonamido)methyl)phenoxyacetic acid], with 3.4 nM.

Staying with this assay, now noted: potency class symbols; Table 2; read-out: CRTH2 hGTPγS IC50.
Regarding `CN(Cc1ccc(OCC(=O)O)c(-c2cccc(F)c2)c1)S(=O)(=O)c1ccc(F)cc1` [Example 130, 2-(3-fluorophenyl)-4-((4-fluoro-N-methylphenylsulfonamido)methyl)phenoxyacetic acid], the IC50 lay in the range of 100 to 1000 nM.

For the compound `CC(c1ccc(OCC(=O)O)c(-c2cccc(C(F)(F)F)c2)c1)N(C)S(=O)(=O)c1ccc(F)cc1` (stereo not shown) [Example 22, 2-(2-(3-trifluoromethylphenyl)-4-(1-(4-fluoro-N-methylphenylsulfonamido)ethyl)phenoxy)acetic acid], the IC50 is 100 to 1000 nM. Still for that read-out and setting: the result for `COc1ccc(-c2cc(CN(C)S(=O)(=O)c3ccc(F)cc3)ccc2OCC(=O)O)cc1` [Example 164, 2-(4-methoxyphenyl)-4-((4-fluoro-N-methylphenylsulfonamido)methyl)phenoxyacetic acid] reads 1000 to 10000 nM; that for `CN(Cc1ccc(OCC(=O)O)c(-c2ccc3cc[nH]c3c2)c1)S(=O)(=O)c1ccc(F)cc1` [Example 183, 2-(1H-indol-6-yl)-4-((4-fluoro-N-methylphenylsulfonamido)methyl)phenoxyacetic acid], 1000 to 10000 nM; that for `CN(Cc1ccc(OCC(=O)O)c(-c2cc(Cl)cc(C#N)c2)c1)S(=O)(=O)c1ccc(F)cc1` [Example 207, 2-(3-cyano-5-chloro-phenyl)-4-((4-fluoro-N-methylphenylsulfonamido)methyl)phenoxyacetic acid], < 100 nM.

With `CN(Cc1ccc(OCC(=O)O)c(-c2cccc(C(F)(F)F)c2)c1)S(=O)(=O)c1cccnc1` [Example 149, 2-(3-trifluoromethylphenyl)-4-((N-methylpyridine-3-sulfonamido)methyl)phenoxyacetic acid], the IC50 lay within 100 to 1000 nM. The same measure, in the same setting: the result for `CN(Cc1cc(F)c(OCC(=O)O)c(-c2cccc(C(F)(F)F)c2)c1)S(=O)(=O)c1ccc(F)cc1` [Example 161, 2-(3-trifluoromethylphenyl)-4-((4-fluoro-N-methylphenylsulfonamido)methyl)-6-fluorophenoxyacetic acid] reads 1000 to 10000 nM.

As for `CN(Cc1ccc(OCC(=O)O)c(-c2cccc(C(F)(F)F)c2)c1)S(=O)(=O)C1CC1` [Example 181, 2-(3-trifluoromethylphenyl)-4-((N-methylcyclopropanesulfonamido)methyl)phenoxyacetic acid], the IC50 lay within 1000 to 10000 nM. Still for that read-out and setting: then `CN(Cc1ccc(OCC(=O)O)c(-c2cc(F)cc(F)c2)c1)S(=O)(=O)c1cccc(Cl)c1` [Example 68, 2-(3,5-difluorophenyl)-4-((3-chloro-N-methylphenylsulfonamido)methyl)phenoxyacetic acid], with < 100 nM; and `COc1cccc(-c2cc(CN(C)S(=O)(=O)c3ccccc3)ccc2OCC(=O)O)c1` [Example 151, 2-(3-methoxyphenyl)-4-((-N-methylphenylsulfonamido)methyl)phenoxyacetic acid], with 1000 to 10000 nM; and `CN(Cc1cc(-c2cccc(C#N)c2)c(OCC(=O)O)cc1F)S(=O)(=O)c1cccc(F)c1` [Example 87, 2-(3-cyanophenyl)-4-((3-fluoro-N-methylphenylsulfonamido)methyl)-5-fluorophenoxyacetic acid], with < 100 nM. On the same count and under the same terms, then `CN(Cc1ccc(OCC(=O)O)c(-c2cncc(C(F)(F)F)c2)c1)S(=O)(=O)c1ccc(F)cc1` [Example 119, 2-(3-trifluoromethyl-5-pyridinyl)-4-((4-fluoro-N-methylphenylsulfonamido)methyl)phenoxyacetic acid], with 100 to 1000 nM; and `CNS(=O)(=O)c1cccc(-c2cc(CN(C)S(=O)(=O)c3ccc(F)c(Cl)c3)ccc2OCC(=O)O)c1` [Example 16, 2-(2-(3-N-methylsulfamoylphenyl)-4-((3-chloro-4-fluoro-N-methylphenylsulfonamido)methyl)phenoxy)acetic acid], with < 100 nM.

On to `CN(Cc1ccc(OCC(=O)O)c(-c2cc(F)cc(Cl)c2)c1)S(=O)(=O)c1ccccc1` [Example 150, 2-(3-chloro-5-fluorophenyl)-4-((-N-methylphenylsulfonamido)methyl)phenoxyacetic acid], for which the IC50 is 100 to 1000 nM. Still for that read-out and setting: the result for `CN(Cc1ccc(OCC(=O)O)c(-c2cc(F)cc(C(F)(F)F)c2)c1)S(=O)(=O)c1ccc(F)cc1` [Example 79, 2-(3-trifluoromethyl-5-fluorophenyl)-4-((4-fluoro-N-methylphenylsulfonamido)methyl)phenoxyacetic acid] reads < 100 nM; that for `CN(Cc1ccc(OCC(=O)O)c(-c2cccc(C#N)c2)c1)S(=O)(=O)c1cc(F)cc(F)c1` [Example 97, 2-(3-cyanophenyl)-4-((3,5-difluoro-N-methylphenylsulfonamido)methyl)phenoxyacetic acid], < 100 nM; that for `CCOc1cc(F)cc(-c2cc(CN(C)S(=O)(=O)c3ccc(F)cc3)ccc2OCC(=O)O)c1` [Example 112, 2-(3-ethoxy-5-fluorophenyl)-4-((4-fluoro-N-methylphenylsulfonamido)methyl)phenoxyacetic acid], 100 to 1000 nM. On to `CN(Cc1ccc(OCC(=O)O)c(-c2cc(F)cc(F)c2)c1)S(=O)(=O)c1ccc(F)c(Cl)c1` [Example 67, 2-(3,5-difluorophenyl)-4-((3-chloro4-fluoro-N-methylphenylsulfonamido)methyl)phenoxyacetic acid], for which the IC50 is < 100 nM. On to `CN(Cc1ccc(OCC(=O)O)c(-c2cccc(Cl)c2)c1)S(=O)(=O)c1ccc(F)cc1` [Example 163, 2-(3-chlorophenyl)-4-((4-fluoro-N-methylphenylsulfonamido)methyl)phenoxyacetic acid], for which the IC50 fell in the range of 1000 to 10000 nM.

In the case of `CN(Cc1ccc(OCC(=O)O)c(-c2cccc(C(F)(F)F)c2)c1)S(=O)(=O)c1cccc(F)c1` [Example 126, 2-(3-trifluoromethylphenyl)-4-((3-fluoro-N-methylphenylsulfonamido)methyl)phenoxyacetic acid], the IC50 lay in the range of 100 to 1000 nM. Still for that read-out and setting: the result for `N#Cc1cc(F)cc(-c2cc(CNS(=O)(=O)c3ccc(F)c(Cl)c3)ccc2OCC(=O)O)c1` [Example 193, 2-(3-cyano-5-fluorophenyl)-4-((3-chloro-4-fluorophenylsulfonamido)methyl)phenoxyacetic acid] reads < 100 nM. On the same count and under the same terms, then `CN(Cc1ccc(OCC(=O)O)c(-c2ccc3ncn(C)c3c2)c1)S(=O)(=O)c1ccc(F)cc1` [Example 184, 2-(3-methyl-3H-benzo[d]imidazol-5-yl)-4-((4-fluoro-N-methylphenylsulfonamido)methyl)phenoxyacetic acid], with 1000 to 10000 nM.

With `CN(Cc1ccc(OCC(=O)O)c(-c2cc(F)cc(F)c2)c1)S(=O)(=O)c1ccc(Cl)c(Cl)c1` [Example 51, 2-(3,5-difluorophenyl)-4-((3,4-dichloro-N-methylphenylsulfonamido)methyl)phenoxyacetic acid], the IC50 was < 100 nM. On the same count and under the same terms, then `CN(Cc1ccc(OCC(=O)O)c(-c2ccccc2)c1)S(=O)(=O)c1ccc(F)cc1` [Example 178, 2-phenyl-4-((4-fluoro-N-methylphenylsulfonamido)methyl)phenoxyacetic acid], with 1000 to 10000 nM; and `CN(Cc1ccc(OCC(=O)O)c(-c2cccc(C#N)c2)c1)S(=O)(=O)c1ccc(F)c(F)c1` [Example 63, 2-(3-cyanophenyl)-4-((3,4-difluoro-N-methylphenylsulfonamido)methyl)phenoxyacetic acid], with < 100 nM.

Turning to `CN(Cc1ccc(OCC(=O)O)c(-c2cc(C(F)(F)F)ccc2Cl)c1)S(=O)(=O)c1ccc(F)cc1` [Example 115, 2-(2-chloro-5-trifluoromethylphenyl)-4-((4-fluoro-N-methylphenylsulfonamido)methyl)phenoxyacetic acid], the IC50 is 100 to 1000 nM.

As to `CN(Cc1ccc(OCC(=O)O)c(-c2cccc(C(F)(F)F)c2)c1)S(=O)(=O)c1cccc2cccnc12` [Example 143, 2-(3-trifluoromethylphenyl)-4-((N-methylquinoline-8-sulfonamido)methyl)phenoxyacetic acid], the IC50 lay within 100 to 1000 nM. The same measure, in the same setting: then `CN(Cc1ccc(OCC(=O)O)c(-c2ccccc2)c1)S(=O)(=O)c1ccccc1` [Example 169, 2-phenyl-4-((N-methylphenylsulfonamido)methyl)phenoxyacetic acid], with 1000 to 10000 nM; and `Cc1ccc(S(=O)(=O)N(C)Cc2ccc(OCC(=O)O)c(-c3cccc(S(C)(=O)=O)c3)c2)cc1` [Example 59, 2-(3-methylsulfonylphenyl)-4-((4-methyl-N-methylphenylsulfonamido)methyl)phenoxyacetic acid], with < 100 nM.

For `CN(Cc1cc(-c2cccc(C#N)c2)c(OCC(=O)O)cc1Cl)S(=O)(=O)c1cccc(F)c1` [Example 53, 2-(3-cyanophenyl)-4-((3-fluoro-N-methylphenylsulfonamido)methyl)-5-chlorophenoxyacetic acid], the IC50 is < 100 nM.

For `CN(Cc1ccc(OCC(=O)O)c(-c2cccc(C#N)c2)c1)S(=O)(=O)c1ccc(Cl)c(F)c1` [Example 65, 2-(3-cyanophenyl)-4-((3-fluoro-4-chloro-N-methylphenylsulfonamido)methyl)phenoxyacetic acid], the IC50 is < 100 nM.
